The values below come from patent US20100056560A1, “USE FOR TREATING OBESITY AND DIABETES” (priority 2006, published 2010).

Structures are written as SMILES.

The subject of the test is adiponectin. In words: Expression of adiponectin in 3T3-L1 adipocytes (Western blot). It counts as cell-based, Mouse. The note with it: 3T3-L1, 100 μM isoflavone, 1 mM L-carnitine, 1 mM L-arginine, 100 ppm caffeine, 24 hours. For orientation: In western blotting, separated proteins are transferred to a membrane and probed.

Description: Mouse undifferentiated 3T3-L1 adipocytes) (purchased from ATCC) were cultured in 10% calf serum-containing DMEM (Dulbecco's modified Eagle's medium, Gibco 1210-0038) in a 10% CO2 incubator to a confluency of 70% while replacing the medium with a fresh medium at 2-day intervals. For differentiation into adipocytes, the cells were cultured in a medium (containing 10% fetal bovine serum, 0.5 mM 3-isobutyl-1-methyxanthine (Sigma), 1 μM dexamethasone (Sigma) and 167 nM insulin (Novo-Nordisk)) for 48 hours, and then the medium was replaced with a DMEM medium (containing 10% fetal bovine serum and 167 nM insulin), in which the cells were further cultured for 48 hours. Finally, the cells were further cultured in a medium (containing only 10% fetal bovine serum) for 48 hours, thus obtaining differentiated adipocytes.
The adipocytes, differentiated in the step 1, were cultured in a medium, containing 51 fatty acid-free calf serum, for 16 hours. On the next day, the cultured cells were washed three times with PBS, and then treated with each of 100 μM isoflavone, 1 mM L-carnitine, 1 mM L-arginine, 100 ppm caffeine and a mixture of 100 μM isoflavone+1 mM L-carnitine+1 mM L-arginine+100 ppm caffeine. After 24 hours of cell incubation, a protein was isolated from each of the media and subjected to Western blot analysis in order to examine a change in the expression of adiponectin.

On to `Cn1c(=O)c2c(ncn2C)n(C)c1=O` [caffeine], for which the expression of adiponectin entry is recorded as “decrease in the expression of adiponectin”.
